Laboratory results published in patent US20170334899A1, “AMINO-SUBSTITUTED ISOTHIAZOLES” (Bayer Pharma Aktiengesellschaft, priority 2014, published 2017).

Columns and labels:
[1] = system: human cervical tumor cell line HeLa (ATCC CCL-2); assay: SAC-Formation - Paclitaxel-Induced Assay; format: cell-based; details: Homo sapiens, HeLa, 24 h, HeLa cells, paclitaxel 0.05 μM, test range 0.005 μM-20 μM, read-out: IC50 [mol/l] SAC-Formation - Paclitaxel-Induced Assay
Procedure, shortened: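 Read-out is high-content imaging of anti-phospho-H3 Ser10 (mitosis) and Hoechst 33342 (DNA, cell number), with decreased mitotic fraction marking checkpoint breakthrough. Compounds (0.005–20 μM) and 0.05 μM paclitaxel co-added to overnight-plated HeLa for 24 h at 37° C; four-parameter Hill fit.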

[2] = target: T1, CDK2/CycE (Homo sapiens, UniProt P24941); assay: CDK2/CycE kinase assay (TR-FRET); format: biochemical; details: avg, read-out: CDK2 avg (IC50 [mol/l])
T1 construct: GST; purchased ProQinase GmbH (Freiburg, Germany); host or cells: insect cells (Sf9)
Procedure, shortened: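 Read-out is a TR-FRET 665/620 nm emission ratio from EDTA-stopped reactions detected with anti-pRB(pSer807/pSer811), Eu-labelled anti-mouse IgG and streptavidin-XL665, scaled between no-enzyme and uninhibited wells. Reaction: Sf9-expressed GST-CDK2/GST-CycE, 15 min compound preincubation, 10 μM ATP, 0.75 μM biotin-peptide, 25 min, 22° C., pH 8.0 Tris buffer.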

IC50 [1] | IC50 [2] | SMILES
64 nM | ≥ 20000 nM | Cc1nsc(Nc2cnc(C(F)(F)F)cn2)c1C(=O)Nc1ccc(OCC2CCN(CCC(F)(F)F)CC2)nc1 [Example 347, 3-methyl-5-{[5-(trifluoromethyl)pyrazin-2-yl]amino}-N-(6-{[1-(3,3,3-trifluoropropyl)piperidin-4-yl]methoxy}pyridin-3-yl)-1,2-thiazole-4-carboxamide]
300 nM | > 20000 nM | Cc1nsc(Nc2cnc(C(F)(F)F)cn2)c1C(=O)Nc1ccc(O[C@@H]2CCCN(CC(F)F)C2)nc1 [Example 385, N-(6-{[(3R)-1-(2,2-difluoroethyl)piperidin-3-yl]oxy}pyridin-3-yl)-3-methyl-5-{[5-(trifluoromethyl)pyrazin-2-yl]amino}-1,2-thiazole-4-carboxamide]
68 nM | > 20000 nM | Cc1nsc(Nc2cnc(C(F)(F)F)cn2)c1C(=O)Nc1ccc(C2CCN(CC(F)(F)F)CC2)nc1 [Example 358, 3-methyl-N-{6-[1-(2,2,2-trifluoroethyl)piperidin-4-yl]pyridin-3-yl}-5-{[5-(trifluoromethyl)pyrazin-2-yl]amino}-1,2-thiazole-4-carboxamide]
610 nM | ≥ 20000 nM | Cc1nsc(Nc2cnc3ccccc3n2)c1C(=O)Nc1ccc(OC2CCCN(C(=O)OC(C)(C)C)C2)nc1 (stereo not drawn) [Example 31, tert-Butyl 3-{[5-({[3-methyl-5-(quinoxalin-2-ylamino)-1,2-thiazol-4-yl]carbonyl}-amino)pyridin-2-yl]oxy}piperidine-1-carboxylate]
2300 nM | ≥ 20000 nM | Cc1nsc(Nc2cnc(C(F)(F)F)cn2)c1C(=O)Nc1ccc(OCC2CCCN(CC(F)(F)F)C2)nc1 (stereo not drawn) [Example 326, 3-methyl-N-(6-{[1-(2,2,2-trifluoroethyl)piperidin-3-yl]methoxy}pyridin-3-yl)-5-{[5-(trifluoromethyl)pyrazin-2-yl]amino}-1,2-thiazole-4-carboxamide]
57 nM | ≥ 20000 nM | Cc1nsc(Nc2cnc(C(F)(F)F)cn2)c1C(=O)Nc1ccc(OCCN(C)CC(F)(F)F)nc1 [Example 350, 3-methyl-N-(6-{2-[methyl(2,2,2-trifluoroethyl)amino]ethoxy}pyridin-3-yl)-5-{[5-(trifluoromethyl)pyrazin-2-yl]amino}-1,2-thiazole-4-carboxamide]
11000 nM | ≥ 20000 nM | Cc1nsc(Nc2cnc3ccccc3n2)c1C(=O)Nc1ccc(OC2CCCNC2)nc1 (stereo not drawn) [Example 32, 3-Methyl-N-[6-(piperidin-3-yloxy)pyridin-3-yl]-5-(quinoxalin-2-ylamino)-1,2-thiazole-4-carboxannide]
88 nM | > 20000 nM | Cc1nsc(Nc2cnc(C(F)(F)F)cn2)c1C(=O)Nc1ccc(OC[C@@H]2CCCN(CCC(F)(F)F)C2)nc1 [Example 377, 3-methyl-5-{[5-(trifluoromethyl)pyrazin-2-yl]amino}-N-(6-{[(3R)-1-(3,3,3-trifluoropropyl)piperidin-3-yl]methoxy}pyridin-3-yl)-1,2-thiazole-4-carboxamide]
37 nM | ≥ 20000 nM | Cc1nsc(Nc2cnc(C(F)(F)F)cn2)c1C(=O)Nc1ccc(OCC2CCCN(CCC(F)(F)F)C2)nc1 (stereo not drawn) [Example 328, 3-methyl-5-{[5-(trifluoromethyl)pyrazin-2-yl]amino}-N-(6-{[1-(3,3,3-trifluoropropyl)piperidin-3-yl]methoxy}pyridin-3-yl)-1,2-thiazole-4-carboxamide]
64 nM | > 20000 nM | Cc1nsc(Nc2cnc(C(F)(F)F)cn2)c1C(=O)Nc1ccc(O[C@@H]2CCN(CCC(F)(F)F)C[C@H]2F)nc1 [Example 368, N-(6-{[(3R,4R)-3-fluoro-1-(3,3,3-trifluoropropyl)piperidin-4-yl]oxy}pyridin-3-yl)-3-methyl-5-{[5-(trifluoromethyl)pyrazin-2-yl]amino}-1,2-thiazole-4-carboxamide]
150 nM | ≥ 20000 nM | Cc1nsc(Nc2cnc(C(F)(F)F)cn2)c1C(=O)Nc1ccc(OCCCN(C)CC(F)F)nc1 [Example 353, N-(6-{3-[(2,2-difluoroethyl)(methyl)amino]propoxy}pyridin-3-yl)-3-methyl-5-{[5-(trifluoromethyl)pyrazin-2-yl]amino}-1,2-thiazole-4-carboxamide]
37 nM | > 20000 nM | Cc1nsc(Nc2cnc(C(F)(F)F)cn2)c1C(=O)Nc1ccc(O[C@@H]2CCN(CC(F)(F)F)C[C@H]2F)nc1 [Example 367, N-(6-{[(3R,4R)-3-fluoro-1-(2,2,2-trifluoroethyl)piperidin-4-yl]oxy}pyridin-3-yl)-3-methyl-5-{[5-(trifluoromethyl)pyrazin-2-yl]amino}-1,2-thiazole-4-carboxamide]
280 nM | ≥ 20000 nM | Cc1nsc(Nc2cnc(C(F)(F)F)cn2)c1C(=O)Nc1ccc(OCC2CCN(CCF)CC2)nc1 [Example 344, N-(6-{[1-(2-fluoroethyl)piperidin-4-yl]methoxy}pyridin-3-yl)-3-methyl-5-{[5-(trifluoromethyl)pyrazin-2-yl]amino}-1,2-thiazole-4-carboxamide]
32 nM | > 20000 nM | Cc1nsc(Nc2cnc(C(F)(F)F)cn2)c1C(=O)Nc1ccc(O[C@H]2CCN(CCC(F)(F)F)C2)nc1 [Example 384, 3-methyl-5-{[5-(trifluoromethyl)pyrazin-2-yl]amino}-N-(6-{[(3S)-1-(3,3,3-trifluoropropyl)pyrrolidin-3-yl]oxy}pyridin-3-yl)-1,2-thiazole-4-carboxamide]
140 nM | > 20000 nM | Cc1nsc(Nc2cnc(C(F)(F)F)cn2)c1C(=O)Nc1ccc(O[C@@H]2CCN(CCC(F)(F)F)C2)nc1 [Example 381, 3-methyl-5-{[5-(trifluoromethyl)pyrazin-2-yl]amino}-N-(6-{[(3R)-1-(3,3,3-trifluoropropyl)pyrrolidin-3-yl]oxy}pyridin-3-yl)-1,2-thiazole-4-carboxamide]
160 nM | > 20000 nM | Cc1nsc(Nc2cnc(C(F)(F)F)cn2)c1C(=O)Nc1ccc(O[C@H]2CCCN(CC(F)(F)F)C2)nc1 [Example 389, 3-methyl-N-(6-{[(3S)-1-(2,2,2-trifluoroethyl)piperidin-3-yl]oxy}pyridin-3-yl)-5-{[5-(trifluoromethyl)pyrazin-2-yl]amino}-1,2-thiazole-4-carboxamide]
150 nM | > 20000 nM | CCN1CC[C@@H](Oc2ccc(NC(=O)c3c(C)nsc3Nc3cnc(C(F)(F)F)cn3)cn2)[C@H](F)C1 [Example 369, N-(6-{[(3R,4R)-1-ethyl-3-fluoropiperidin-4-yl]oxy}pyridin-3-yl)-3-methyl-5-{[5-(trifluoromethyl)pyrazin-2-yl]amino}-1,2-thiazole-4-carboxamide]
190 nM | ≥ 20000 nM | Cc1nsc(Nc2cnc(C(F)(F)F)cn2)c1C(=O)Nc1ccc(OCCCN(C)CCC(F)(F)F)nc1 [Example 355, 3-methyl-N-(6-{3-[methyl(3,3,3-trifluoropropyl)amino]propoxy}pyridin-3-yl)-5-{[5-(trifluoromethyl)pyrazin-2-yl]amino}-1,2-thiazole-4-carboxamide]
